System: HaCaT cells
Test: Concentrations of inflammatory mediators produced by HaCaT cells stimulated with TNFα and IFNγ in presence/absence of JAK inhibitors (ProCarta)
Type: cell-based, human
Outline: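 HaCaT cells pre-treated 15 min with JAK inhibitors, then stimulated with TNFα and IFNγ (25 ng/mL each) at drug finals of 25, 50, 100 and 200 nM for 24 h at 37 °C. Secreted mediators in media measured by Luminex bead immunoassay; concentrations (pg/mL) from antigen standard curves.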

[1] = TNFα+IFNγ 25 ng/mL each, drug conc. 1st of 4 rows (cell not shown; prob. 25 nM)
[2] = TNFα+IFNγ 25 ng/mL each, drug conc. 2nd of 4 rows (cell not shown; prob. 50 nM)
[3] = TNFα+IFNγ 25 ng/mL each, drug conc. 3rd of 4 rows (cell not shown; prob. 100 nM)
[4] = TNFα+IFNγ 25 ng/mL each, drug conc. 4th of 4 rows (cell not shown; prob. 200 nM)
[5] = drug present, concentration not given

Structure (SMILES): C[C@@H](O)c1nc2cnc3ccsc3c2n1[C@H]1CC[C@H](CC#N)OC1 [Cpd D, ((2R,5S)-5-{2-[(1R)-1-hydroxyethyl]-1H-imidazo[4,5-d]thieno[3,2-b]pyridin-1-yl}tetrahydro-2H-pyran-2-yl)acetonitrile]
- IFN gamma concentration [1]: 24180.78 ± 2901.94 pg/mL
- IL1RA concentration [1]: 5760.33 ± 367.09 pg/mL
- IL1 alpha concentration [1]: 6.8 ± 0.39 pg/mL
- IL1 beta concentration [1]: 8.92 ± 0.42 pg/mL
- IL2 concentration [1]: 31.46 ± 1.56 pg/mL
- IL4 concentration [1]: 7.2 ± 1.25 pg/mL
- IL5 concentration [1]: 26.66 ± 1.72 pg/mL
- IL6 concentration [1]: 743.07 ± 36.3 pg/mL
- IL7 concentration [1]: 2.16 ± 0.11 pg/mL
- IL8 concentration [1]: 2820.21 ± 159.05 pg/mL
- IL9 concentration [1]: 3.7 ± 0^ pg/mL
- IL10 concentration [1]: 0.76 ± 0.08 pg/mL
- IL12p70 concentration [1]: 1.88 ± 0.19 pg/mL
- IL13 concentration [1]: 2.67 ± 0.24 pg/mL
- IL15 concentration [1]: 4.2 ± 0.86 pg/mL
- IL17A concentration [1]: 3.84 ± 0.3 pg/mL
- IL18 concentration [1]: 159.38 ± 4.31 pg/mL
- IL21 concentration [1]: 2.71 ± 0.18 pg/mL
- IL22 concentration [1]: 7.83 ± 0.75 pg/mL
- IL23 concentration [1]: 7.43 ± 0 pg/mL
- IL27 concentration [1]: 7.42 ± 0.9 pg/mL
- IL31 concentration [1]: 2.97 ± 0.37 pg/mL
- IP-10/CXCL10 concentration [1]: 3903.67 ± 366.97 pg/mL
- LIF concentration [1]: 65.71 ± 2.6 pg/mL
- MCP1 concentration [1]: 21968.74 ± 4662.32 pg/mL
- MIP1 alpha concentration [1]: 102.06 ± 4.18 pg/mL
- MIP1 beta concentration [1]: 313.64 ± 8.9 pg/mL
- PDGF-BB concentration [1]: 4.23 ± 0.18 pg/mL
- PIGF-1 concentration [1]: 59.56 ± 3.2 pg/mL
- RANTES concentration [1]: 237.57 ± 17.46 pg/mL
- SCF concentration [1]: 4.18 ± 0.24 pg/mL
- SDF-1 alpha concentration [1]: 3456.41 ± 158.06 pg/mL
- TNF alpha concentration [1]: 8951.15 ± 870.67 pg/mL
- TNF beta concentration [1]: 4.62 ± 0.49 pg/mL
- VEGF-A concentration [1]: 1303.84 ± 56.86 pg/mL
- VEGF-D concentration [1]: 8.7 ± 0.52 pg/mL
- IFN gamma concentration [2]: 25506.14 ± 3960.86 pg/mL
- IL1RA concentration [2]: 5709.52 ± 391.3 pg/mL
- IL1 alpha concentration [2]: 6.76 ± 0.4 pg/mL
- IL1 beta concentration [2]: 8.82 ± 0.46 pg/mL
- IL2 concentration [2]: 29.16 ± 2.01 pg/mL
- IL4 concentration [2]: 5.9 ± 1.18 pg/mL
- IL5 concentration [2]: 28.49 ± 1.85 pg/mL
- IL6 concentration [2]: 698.04 ± 29.79 pg/mL
- IL7 concentration [2]: 2.14 ± 0.07 pg/mL
- IL8 concentration [2]: 2907.08 ± 193.16 pg/mL
- IL9 concentration [2]: 3.37 ± 0.33 pg/mL
- IL10 concentration [2]: 0.67 ± 0.07 pg/mL
- IL12p70 concentration [2]: 1.69 ± 0.19 pg/mL
- IL13 concentration [2]: 2.21 ± 0.27 pg/mL
- IL15 concentration [2]: 2.82 ± 0.72 pg/mL
- IL17A concentration [2]: 4.15 ± 0.57 pg/mL
- IL18 concentration [2]: 156.12 ± 3.47 pg/mL
- IL21 concentration [2]: 2.13 ± 0.39 pg/mL
- IL22 concentration [2]: 8.9 ± 0^ pg/mL
- IL23 concentration [2]: 7.43 ± 0 pg/mL
- IL27 concentration [2]: 5.51 ± 1.25 pg/mL
- IL31 concentration [2]: 3.43 ± 0.31 pg/mL
- IP-10/CXCL10 concentration [2]: 3998.62 ± 456.34 pg/mL
- LIF concentration [2]: 66.01 ± 3.21 pg/mL
- MCP1 concentration [2]: 25836.84 ± 10636.84 pg/mL
- MIP1 alpha concentration [2]: 96.35 ± 3.57 pg/mL
- MIP1 beta concentration [2]: 316.87 ± 10.18 pg/mL
- PDGF-BB concentration [2]: 4.36 ± 0.18 pg/mL
- PIGF-1 concentration [2]: 56.72 ± 3.48 pg/mL
- RANTES concentration [2]: 237.55 ± 21.78 pg/mL
- SCF concentration [2]: 4.1 ± 0.21 pg/mL
- SDF-1 alpha concentration [2]: 3450.69 ± 158.13 pg/mL
- TNF alpha concentration [2]: 9862.6 ± 1041^ pg/mL
- TNF beta concentration [2]: 5.03 ± 0.38 pg/mL
- VEGF-A concentration [2]: 1286.84 ± 61.29 pg/mL
- VEGF-D concentration [2]: 8.49 ± 0.72 pg/mL
- IFN gamma concentration [3]: 29392.77 ± 4832.25 pg/mL
- IL1RA concentration [3]: 5879.83 ± 410.09 pg/mL
- IL1 alpha concentration [3]: 6.92 ± 0.4 pg/mL
- IL1 beta concentration [3]: 8.63 ± 0.36 pg/mL
- IL2 concentration [3]: 29.23 ± 1.62 pg/mL
- IL4 concentration [3]: 5.13 ± 0.78 pg/mL
- IL5 concentration [3]: 27.43 ± 2.11 pg/mL
- IL6 concentration [3]: 703.99 ± 42.22 pg/mL
- IL7 concentration [3]: 2.15 ± 0.14 pg/mL
- IL8 concentration [3]: 3061.2 ± 217.26 pg/mL
- IL9 concentration [3]: 3.58 ± 0.24 pg/mL
- IL10 concentration [3]: 0.81 ± 0.07 pg/mL
- IL12p70 concentration [3]: 1.75 ± 0.22 pg/mL
- IL13 concentration [3]: 2.98 ± 0.4 pg/mL
- IL15 concentration [3]: 3.29 ± 0.9 pg/mL
- IL17A concentration [3]: 3.57 ± 0.45 pg/mL
- IL18 concentration [3]: 156.97 ± 5.2 pg/mL
- IL21 concentration [3]: 2.64 ± 0.24 pg/mL
- IL22 concentration [3]: 8.21 ± 0.69 pg/mL
- IL23 concentration [3]: 7.43 ± 0 pg/mL
- IL27 concentration [3]: 5.92 ± 0.88 pg/mL
- IL31 concentration [3]: 4.14 ± 0.48 pg/mL
- IP-10/CXCL10 concentration [3]: 4100.26 ± 502.48 pg/mL
- LIF concentration [3]: 70.02 ± 3.89 pg/mL
- MCP1 concentration [3]: 15200 ± 0 pg/mL
- MIP1 alpha concentration [3]: 96.22 ± 3.58 pg/mL
- MIP1 beta concentration [3]: 317.95 ± 8.1 pg/mL
- PDGF-BB concentration [3]: 4.71 ± 0.23 pg/mL
- PIGF-1 concentration [3]: 59.49 ± 3.52 pg/mL
- RANTES concentration [3]: 241.39 ± 22.79 pg/mL
- SCF concentration [3]: 4.29 ± 0.29 pg/mL
- SDF-1 alpha concentration [3]: 3563.68 ± 157.35 pg/mL
- TNF alpha concentration [3]: 10525.46 ± 1077.11 pg/mL
- TNF beta concentration [3]: 4.47 ± 0.37 pg/mL
- VEGF-A concentration [3]: 1346.72 ± 67.56 pg/mL
- VEGF-D concentration [3]: 9.64 ± 0.91 pg/mL
- IFN gamma concentration [4]: 26972.77 ± 4164.13 pg/mL
- IL1RA concentration [4]: 5450.17 ± 388.11 pg/mL
- IL1 alpha concentration [4]: 6.3 ± 0.35 pg/mL
- IL1 beta concentration [4]: 8.81 ± 0.35 pg/mL
- IL2 concentration [4]: 31.88 ± 1.61 pg/mL
- IL4 concentration [4]: 8.19 ± 1.39 pg/mL
- IL5 concentration [4]: 25.61 ± 1.98 pg/mL
- IL6 concentration [4]: 646.2 ± 32.46 pg/mL
- IL7 concentration [4]: 2.14 ± 0.12 pg/mL
- IL8 concentration [4]: 2893.51 ± 190.51 pg/mL
- IL9 concentration [4]: 4.44 ± 0.54 pg/mL
- IL10 concentration [4]: 0.84 ± 0.08 pg/mL
- IL12p70 concentration [4]: 1.7 ± 0.2 pg/mL
- IL13 concentration [4]: 2.52 ± 0.42 pg/mL
- IL15 concentration [4]: 3.37 ± 0.8 pg/mL
- IL17A concentration [4]: 4.04 ± 0.49 pg/mL
- IL18 concentration [4]: 155.77 ± 4.15 pg/mL
- IL21 concentration [4]: 2.84 ± 0.04 pg/mL
- IL22 concentration [4]: 8.39 ± 0.51 pg/mL
- IL23 concentration [4]: 7.43 ± 0 pg/mL
- IL27 concentration [4]: 8.3 ± 1.2 pg/mL
- IL31 concentration [4]: 3.05 ± 0.38 pg/mL
- IP-10/CXCL10 concentration [4]: 4407.56 ± 645.63 pg/mL
- LIF concentration [4]: 67.62 ± 3.58 pg/mL
- MCP1 concentration [4]: 18512.1 ± 3312.1 pg/mL
- MIP1 alpha concentration [4]: 88.49 ± 5.06 pg/mL
- MIP1 beta concentration [4]: 316.74 ± 9.29 pg/mL
- PDGF-BB concentration [4]: 4.75 ± 0.16 pg/mL
- PIGF-1 concentration [4]: 55.63 ± 3.23 pg/mL
- RANTES concentration [4]: 238.51 ± 23.12 pg/mL
- SCF concentration [4]: 4.07 ± 0.21 pg/mL
- SDF-1 alpha concentration [4]: 3464.97 ± 155.2 pg/mL
- TNF alpha concentration [4]: 9777.73 ± 966.87 pg/mL
- TNF beta concentration [4]: 4.96 ± 0.56 pg/mL
- VEGF-A concentration [4]: 1256.89 ± 60.57 pg/mL
- VEGF-D concentration [4]: 8.03 ± 0.93 pg/mL
- IL1 alpha concentration [5]: 0.26 ± 0.05 pg/mL
- IL1 beta concentration [5]: 0.98 ± 0.12 pg/mL
- IL2 concentration [5]: 2.4 ± 0.09 pg/mL
- IL4 concentration [5]: 5.34 ± 0.89 pg/mL
- IL5 concentration [5]: 2.88 ± 0.36 pg/mL
- IL6 concentration [5]: 28.84 ± 1.89 pg/mL
- IL7 concentration [5]: 3.44 ± 0.16 pg/mL
- IL8 concentration [5]: 257.62 ± 7.07 pg/mL
- IL9 concentration [5]: 3.98 ± 0.36 pg/mL
- IL10 concentration [5]: 0.43 ± 0.11 pg/mL
- IL12p70 concentration [5]: 2.15 ± 0.26 pg/mL
- IL13 concentration [5]: 1.26 ± 0.15 pg/mL
- IL15 concentration [5]: 3.2 ± 0.71 pg/mL
- IL17A concentration [5]: 1.22 ± 0.2 pg/mL
- IL18 concentration [5]: 6.54 ± 0.37 pg/mL
- IL21 concentration [5]: 2.5 ± 0.3 pg/mL
- IL22 concentration [5]: 8.08 ± 0.82 pg/mL
- IL23 concentration [5]: 6.43 ± 1.28 pg/mL
- IL27 concentration [5]: 11.9 ± 2.31 pg/mL
- IL31 concentration [5]: 3.7 ± 0.06 pg/mL
- IP-10/CXCL10 concentration [5]: 20.23 ± 0.48 pg/mL
- LIF concentration [5]: 22.66 ± 0.82 pg/mL
- MCP1 concentration [5]: 1306.83 ± 54.65 pg/mL
- MIP1 alpha concentration [5]: 2.75 ± 0.26 pg/mL
- MIP1 beta concentration [5]: 113.08 ± 4.82 pg/mL
- PDGF-BB concentration [5]: 1.93 ± 0.18 pg/mL
- PIGF-1 concentration [5]: 20.55 ± 1.16 pg/mL
- RANTES concentration [5]: 10.17 ± 0.54 pg/mL
- SCF concentration [5]: 1.91 ± 0.15 pg/mL
- SDF-1 alpha concentration [5]: 990.69 ± 48.87 pg/mL
- TNF alpha concentration [5]: 2.41 ± 0.7 pg/mL
- TNF beta concentration [5]: 4.42 ± 0.57 pg/mL
- VEGF-A concentration [5]: 598.11 ± 16.67 pg/mL
- VEGF-D concentration [5]: 3.55 ± 0.66 pg/mL
